Laboratory results published in patent EP1750770B1, “USE OF ORGANO-SILICON COMPOUNDS FOR CO[…] TISSUES” (Exsymol, priority 2004, dated 2005).
Like-named read-outs stand apart in the source and are kept apart here. One block for each substance: values may come before it.

How the values were obtained:
collagénase = assay: Collagenase activity in tissue extracts of the dermal polyvinyl alcohol microsponge implant zone (Test 1); type: in vivo, rats Hairless; conditions: once daily
Method: Une solution à 0,5 mg /ml de PZ-L Pro-L Leu-L Gly-L Pro-D Arg a été réalisée dans un tampon Tris-HCl (25 mM, pH 7,0; 2,5 mM de CaCl2). 0,5 ml de la solution de substrat ont été incubés à 37°C avec 200 µl d'extrait tissulaire pendant 2 h 30. A différents temps, 100 µl du milieu réactionnel ont été prélevés et ajoutés à 250 µl d'acide citrique à 0,5% (arrêt de la réaction) puis à 1,25 ml d'acétate d'éthyle. L'augmentation de densité optique (mD.O./min) et corrélée à la protéolyse du substrat a été suivie à 320 nm.
(§1) L'action quantitative et qualitative des deux composés organo-siliciés sur des rats Hairless et les altérations d'organisation de leur matrice extra-cellulaire (MEC) cutanée a été évaluée, et de manière régiosélective. En effet, un volume dermique de 0,5 cm^3 environ a été prélevé puis remplacé chirurgicalement par un dispositif médical implantable, que sont les microéponges en polyvinylalcool. Ces dernières sont usuellement utilisées pour la transplantation de cellules (Mooney D.J., J. Biomed. Mat Res(1995), vol.29, pp.959) car biocompatibles, de haute porosité et capables d'absorber 98% de leur volume.
(§2) La re-colonisation de l'implant (ou dispositif médical implantable) par le tissu dermique est alors observée sous l'effet des composés organo-siliciés. […] Les composés organo-siliciés sont administrés à raison d'une fois par jour pendant 2 mois.
(§3) L'évaluation quantitative a été réalisée via une mesure des cinétiques des marqueurs d'activité tissulaire dans la zone implantée. Les marqueurs suivis ont été des marqueurs biologiques témoignant de l'état du tissu, à savoir les enzymes "collagénase" et "élastase" qui rendent compte, avec leurs activités, du turn-over des protéines de la matrice extracellulaire, et l'enzyme "G6PDH" dont l'activité est un marqueur du niveau énergétique des cellules (équilibre redox cellulaire). L'évaluation qualitative a, elle, été réalisée avec le prélèvement chirurgical d'une partie de cet implant à différent temps de l'expérimentation. Après fixation, des coupes de 5 µm et une coloration H.E ou Trichrome-Masson ont été réalisées, ainsi qu'une analyse histologique de l'organisation du collagène de la MEC.

élastase = assay: Elastase activity in tissue extracts of the dermal implant zone (Test 1); type: in vivo, rats Hairless; conditions: once daily, SalSi-3OH intradermal, HyalSi-3OH topical cream
Method: Du N-succinyl-Ala-Ala-Pro-Leu p-nitroanilide en solution dans un tampon Tris-HCl (10mM pH 8) à 0,5 g/l à été incubé à 37°C avec 0,2 ml d'extrait tissulaire dans un volume final de 1,2 ml pendant 5 heures. L'augmentation de densité optique (mD.O./min) et corrélée à la protéolyse du substrat a été suivie à […].
as §1, §2, §3

[1] = system: glucose-6-phosphate déshydrogénase; assay: Glucose-6-phosphate dehydrogenase activity in tissue extracts of the dermal implant zone (Test 1); type: in vivo, rats Hairless; conditions: once daily
Method: 0,8 ml d'extrait tissulaire ont été incubés avec 20 µl de solution à 2,4 mM de NADP et à 24,4 mM de glucose 6-phosphate (G6P) en tampon phosphate (0,1M pH 7,4). L'augmentation de densité optique (mD.O./min) et corrélée à la réduction du substrat a été suivie à 340 nm à 25°C.
as §1, §2, §3

[2] = system: matrice extra-cellulaire (MEC) cutanée; assay: Qualitative evaluation: implant appearance and histological analysis of collagen organisation of the ECM (Test 1); type: in vivo, rats Hairless; conditions: once daily
Text: as §1, §2, §3

[3] = system: rides "patte d'oie" et/ou intersourcilières; conditions: for échelle visuelle analogique, Front / échelle visuelle analogique, Pattes-d'oie: intradermal injections at J0, S1, S2, rated by volunteers; for amélioration du relief cutané: all injected sites
Text: Les données obtenues à partir de l'échelle visuelle analogique ont fait l'objet d'une analyse de variance en mesures répétées sur le temps, suivie d'une analyse des contrastes.

[4] = immediately after the injection
[5] = week 1 post-implantation, SalSi-3OH 0,5% solution 0,2 ml intradermal, HyalSi-3OH 0,5% cream 100 mg topical

Activité collagénase (collagénase; [5]): 3,6±0,5 mD.O./min/mg de prot.
Activité collagénase (collagénase; week 2 post-implantation): 6,1±0,8 mD.O./min/mg de prot.
Activité collagénase (collagénase; week 3 post-implantation): 13±1,7 mD.O./min/mg de prot.
Activité collagénase (collagénase; week 4 post-implantation): 11,2±0,8 mD.O./min/mg de prot.
Activité collagénase (collagénase; week 5 post-implantation): 8,1±1,3 mD.O./min/mg de prot.
Activité collagénase (collagénase; week 8 post-implantation): 3,9±0,5 mD.O./min/mg de prot.
Activité élastase (élastase; week 1 post-implantation): 3,0±0,6 mD.O./min/mg de prot.
Activité élastase (élastase; week 2 post-implantation): 6,8±1,3 mD.O./min/mg de prot.
Activité élastase (élastase; week 3 post-implantation): 9,5±1,3 mD.O./min/mg de prot.
Activité élastase (élastase; week 4 post-implantation): 8,4±1,6 mD.O./min/mg de prot.
Activité élastase (élastase; week 5 post-implantation): 5,1±0,9 mD.O./min/mg de prot.
Activité élastase (élastase; week 8 post-implantation): 2,0±0,3 mD.O./min/mg de prot.
Activité G6DPH ([1]; week 1 post-implantation): 7,6±1,4 mD.O./min/mg de prot.
Activité G6DPH ([1]; week 2 post-implantation): 9,3±1,1 mD.O./min/mg de prot.
Activité G6DPH ([1]; week 3 post-implantation): 18,4±2,9 mD.O./min/mg de prot.
Activité G6DPH ([1]; week 4 post-implantation): 43,7±5,5 mD.O./min/mg de prot.
Activité G6DPH ([1]; week 5 post-implantation): 36,5±4,8 mD.O./min/mg de prot.
Activité G6DPH ([1]; week 8 post-implantation): 9,0±0,45 mD.O./min/mg de prot.
Substance: salicylate de monométhylsilanetriol [SalSi-3OH]
Aspect implant + analyse histologique ([2]; week 1 post-implantation): début colonisation cellulaire
Aspect implant + analyse histologique ([2]; week 2 post-implantation): colonisation cellulaire (70à 90%) + début formation MEC
Aspect implant + analyse histologique ([2]; week 3 post-implantation): formation MEC avec présence collagène non organisé
Aspect implant + analyse histologique ([2]; week 4 post-implantation): formation MEC avec présence collagène non organisé dans 20% des espaces de l'implant + collagène organisé dans 20% du l'implant
Aspect implant + analyse histologique ([2]; week 5 post-implantation): formation MEC avec présence collagène non organisédans l'ensemble de l'implant + collagène organisé dans 50% de l'implant
Aspect implant + analyse histologique ([2]; week 8 post-implantation): formation MEC dans l'ensemble de l'implant + collagène organisé dans 70% de l'implant
échelle visuelle analogique, Front ([3]; S1): 18,67 ± 20,98 µm
échelle visuelle analogique, Pattes-d'oie ([3]; S1): 19,20 ± 19,14 µm
échelle visuelle analogique, Front ([3]; S2): 32,25 ± 23,23 µm
échelle visuelle analogique, Pattes-d'oie ([3]; S2): 31,23 ± 21,66 µm
échelle visuelle analogique, Front ([3]; S6): 35,33 ± 26,99 µm
échelle visuelle analogique, Pattes-d'oie ([3]; S6): 38,92 ± 25,97 µm
échelle visuelle analogique, Front ([3]; S12): 38,65 ± 25,85 µm
échelle visuelle analogique, Pattes-d'oie ([3]; S12): 41,63 ± 26,70 µm
échelle visuelle analogique, Front ([3]; S24): 39,55 ± 25,33 µm
échelle visuelle analogique, Pattes-d'oie ([3]; S24): 39,58 ± 24,89 µm
échelle visuelle analogique, Front ([3]; S36): 36,57 ± 24,55 µm
échelle visuelle analogique, Pattes-d'oie ([3]; S36): 39,52 ± 25,22 µm
échelle visuelle analogique, Front ([3]; S52): 34,58 ± 25,54 µm
échelle visuelle analogique, Pattes-d'oie ([3]; S52): 38,61 ± 26,10 µm
amélioration du relief cutané ([3]; at 6 months): se maintient
amélioration du relief cutané ([3]; at 12 months): régresse très légèrement
amélioration du relief cutané ([3]; mean, after 3 months): 40%
amélioration du relief cutané (significance) ([3]; one year after the first injection): significative sur tous les sites
effet de comblement [4]: sans effet de comblement immédiatement après l'injection

Substance: hyaluronate de monométhylsilanetriol [HyalSi-3OH]
Activité collagénase (collagénase; [5]): 3,4±0,3 mD.O./min/mg de prot.
Activité collagénase (collagénase; week 2 post-implantation): 5,9±0,7 mD.O./min/mg de prot.
Activité collagénase (collagénase; week 3 post-implantation): 12,0±1,3 mD.O./min/mg de prot.
Activité collagénase (collagénase; week 4 post-implantation): 14,1±3,1 mD.O./min/mg de prot.
Activité collagénase (collagénase; week 5 post-implantation): 7,3±1,6 mD.O./min/mg de prot.
Activité collagénase (collagénase; week 8 post-implantation): 3,5±1,4 mD.O./min/mg de prot.
Activité élastase (élastase; week 1 post-implantation): 3,4±0,5 mD.O./min/mg de prot.
Activité élastase (élastase; week 2 post-implantation): 7,8±2,2 mD.O./min/mg de prot.
Activité élastase (élastase; week 3 post-implantation): 10,5±2,9 mD.O./min/mg de prot.
Activité élastase (élastase; week 4 post-implantation): 9,4±2,4 mD.O./min/mg de prot.
Activité élastase (élastase; week 5 post-implantation): 5,6±1,1 mD.O./min/mg de prot.
Activité élastase (élastase; week 8 post-implantation): 2,4±0,9 mD.O./min/mg de prot.
Activité G6DPH ([1]; week 1 post-implantation): 8,2±1,9 mD.O./min/mg de prot.
Activité G6DPH ([1]; week 2 post-implantation): 13,8±1,5 mD.O./min/mg de prot.
Activité G6DPH ([1]; week 3 post-implantation): 25,1±4,6 mD.O./min/mg de prot.
Activité G6DPH ([1]; week 4 post-implantation): 46,8±7,6 mD.O./min/mg de prot.
Activité G6DPH ([1]; week 5 post-implantation): 37,5±6,2 mD.O./min/mg de prot.
Activité G6DPH ([1]; week 8 post-implantation): 7,3±2,4 mD.O./min/mg de prot.
Aspect implant + analyse histologique ([2]; week 1 post-implantation): début colonisation cellulaire
Aspect implant + analyse histologique ([2]; week 2 post-implantation): colonisation cellulaire (70 à 90%) + début formation MEC
Aspect implant + analyse histologique ([2]; week 3 post-implantation): formation MEC avec accumulation collagène non organisé
Aspect implant + analyse histologique ([2]; week 4 post-implantation): formation MEC avec présence collagène non organisé dans 30% des espaces de l'implant + collagène organisé dans 10% de l'implant
Aspect implant + analyse histologique ([2]; week 5 post-implantation): formation MEC avec présence collagène non organisé dans l'ensemble de l'implant + collagéne organisé dans 30% de l'implant
Aspect implant + analyse histologique ([2]; week 8 post-implantation): formation MEC dans l'ensemble de l'implant + collagène organisé dans 45% de l'implant
